Experimental data from patent US20130273649A1, “Culture medium for pluripotent stem cells” (UNIVERSITY OF SOUTHERN CALIFORNIA, priority 2012, published 2013).

Experiments:
Type in all cases: cell-based
mouse EpiSCs = experiment: Mouse EpiSC self-renewal culture; details: for EpiSC self-renewal / maintenance of undifferentiated state: CD1 mouse EpiSCs, GMEM/10% FBS, no FGF2/activin unless named, CHIR 3 μM, PD0325901 1 μM, XAV939 2 μM, IWR-1 2.5 μM, IWP-2 2.5 μM, Pyrvinium 100 nM
From the text: We therefore reasoned that if CHIR induces EpiSC differentiation through stabilization of β-catenin, de-stabilization of β-catenin might promote EpiSC self-renewal. We tested this hypothesis by administering the tankyrase inhibitor XAV939 to mouse EpiSC cultures. XAV939-mediated inhibition of tankyrase stabilizes Axin, leading to the formation of the β-catenin destruction complex, composed of GSK3, Axin and adenomatous polyposis coli (APC) (Huang et al., 2009). […] EpiSCs cultured in CHIR/XAV could be routinely passaged by single-cell dissociation and replating onto gelatin-coated dishes, and could be cryo-preserved and recovered at high efficiency by standard techniques.
final concentrations: CHIR99021 (3 μM), PD0325901 (1 μM), XAV939 (Sigma, 2 μM), IWR-1 (Sigma, 2.5 μM), IWP-2 (Stemgent, 2.5 μM), Pyrvinium (Sigma, 100 nM), recombinant human FGF2 (PeproTech, 10 ng/ml), and recombinant human activin A (PeproTech, 10 ng/ml). CHIR99021 and PD0325901 were synthesized in the Division of Signal Transduction Therapy, University of Dundee, UK.
The basal medium for mouse EpiSC culture is the conventional mouse ESC medium, which consists of GMEM (Sigma) supplemented with 10% fetal bovine serum (FBS) (Hyclone), 2 mM L-glutamine (Invitrogen), 1 mM sodium pyruvate (Invitrogen), 1% nonessential amino acids (Invitrogen), and 0.1 mM (3-mercaptoethanol. Mouse EpiSCs were derived and maintained in the basal medium supplemented with FGF2/activin, CHIR/XAV, or CHIR/IWR-1. The basal medium for rat EpiSC culture is N2B27 (Tong et al., 2011), which was prepared by mixing 500 ml of DMEM/F12 (Invitrogen) with 500 ml of Neurobasal™ medium (Invitrogen), and adding 5 ml of N2 (Invitrogen), 10 ml of B27 (Invitrogen), 5 ml of Glutamax™ (Invitrogen), and 1 ml of 0.1 M β-mercaptoethanol (Sigma). The basal medium for human ESC culture consists of Knockout™ DMEM/F12 supplemented with 20% KSR (Invitrogen), 1% nonessential amino acids, 2 mM L-glutamine, and 0.1 mM (3-mercaptoethanol. Human ESCs were cultured in the basal medium supplemented with FGF2, CHIR/XAV, or CHIR/IWR-1.
Post-implantation epiblasts were isolated from mouse or rat embryos and dissociated into small clumps as previously described (Chenoweth and Tesar, 2010). Epiblast fragments were placed into 4-well plates pre-coated with 0.1% gelatin (for mouse epiblasts) or pre-seeded with γ-irradiated mouse embryonic fibroblasts (MEFs) (for rat epiblasts) and cultured in either the FGF2/activin or the CHIR/XAV conditions. Emerging EpiSCs were trypsinized and expanded every 2-3 days at a subculture ratio of 1:4. Animal experiments were performed according to the investigator's protocols approved by the University of Southern California Institutional Animal Care and Use Committee.

Axin2 = experiment: Western blot of Axin2 in mouse EpiSCs; details: CD1 mouse EpiSCs treated 12 h
[1] = tested on: β-catenin/TCF-responsive TOPFlash reporter; experiment: TOPFlash reporter assay in H9 human ESCs; details: 24 h
Description: (A) TOPFlash™ assay in H9 human ESCs subjected to the indicated treatments for 24 h. Data represent mean±s.d. of three biological replicates. (B) Representative phase contrast and alkaline phosphatase (AP) staining images of H9 human ESCs cultured in the indicated conditions for 3 passages. (C) Phase contrast images of H9 human ESCs cultured in CHIR/XAV or CHIR/IWR-1 for 11 passages. (D) Colony forming efficiency assay of H9 human ESCs cultured in FGF2 or CHIR/IWR-1 conditions. Data represent mean±s.d. of three biological replicates. Right panel: a representative image showing AP staining of colonies formed from H9 human ESCs cultured in either FGF2 or CHIR/IWR-1 condition. (E) Human ESCs cultured in CHIR/IWR-1 for 11 passages were immunostained with the indicated antibodies. (F) Embryoid bodies (EBs) were generated from H9 human ESCs cultured in CHIR/IWR-1 for 11 passages. The outgrowths of EBs were immunostained with the indicated antibodies. (G) H&E staining of teratomas generated from H9 ESCs cultured in CHIR/IWR-1 for 20 passages. (H) Western blot analysis of Axin1 and Axin2 expression in HES3 human ESCs treated with the indicated cytokines/inhibitors for 24 h. (I) Immunofluorescence images of H9 human ESCs (passage 5 in CHIR) overexpressing Flag-tagged Axin2. (J) Representative phase contrast and immunofluorescence images of HES2 human ESCs overexpressing ΔNβ-catenin-ERT2 at passage 5 in basal medium only. These cells were cultured in basal medium only for more than 10 passages and remained morphologically undifferentiated. (K) Phase contrast images of HES2 human ESCs overexpressing ΔNβ-catenin (left panel, passage 2 in basal medium/FGF2) or ΔNβ-catenin/A295W/I296W mutant (right panel, passage 5 in basal medium only). Scale bars, 50 μm (B, C, E-G, and I-K). (L) Model of mouse EpiSC and human ESC self-renewal mediated by β-catenin. In the absence of Wnt or GSK3 inhibitor, a β-catenin destruction complex, containing Axin1, GSK3, and APC is formed, leading to the degradation of β-catenin and differentiation (left). In the presence of Wnt or GSK3 inhibitor, β-catenin is stabilized and can initiate cellular responses related to both self-renewal and differentiation. Stabilized β-catenin induces differentiation when it translocates into the nucleus and binds TCFs to activate downstream targets (middle). Addition of XAV or IWR-1 stabilizes Axin2. […]
For quantifying relative Oct3/4 enhancer activities, pGL3-Oct4 DE and pGL3-Oct4 PE plasmids (gifts from Hans Schöler's lab) were co-transfected with the Renilla vector, using the Amaxa™ Transfection Kit (Lonza). […] For quantifying relative β-catenin/Tcf transcriptional activity, pGL2-SuperTOP™ plasmid (gift from Randall Moon) was co-transfected with the Renilla vector and assayed accordingly.

| Compound | self-renewal of β-catenin−/− EpiSCs overexpressing Axin2 (mouse EpiSCs; 3 μM CHIR after removal of FGF2/activin) | self-renewal of Axin1-overexpressing EpiSCs (mouse EpiSCs; Axin1-EpiSCs, CHIR after removal of FGF2/activin) | self-renewal of Axin2-overexpressing EpiSCs (mouse EpiSCs; Axin2-EpiSCs, CHIR alone after removal of FGF2/activin) | EpiSC self-renewal / maintenance of undifferentiated state (mouse EpiSCs) | amount of Axin2 protein (Axin2) | TOPFlash reporter activity [1] | time EpiSCs remained undifferentiated (mouse EpiSCs; XAV939 alone, before passaging) | effect on TOPFlash activity induced by CHIR ([1]; added to CHIR) |
| --- | --- | --- | --- | --- | --- | --- | --- | --- |
| Cc1c[nH]c(-c2cnc(NCCNc3ccc(C#N)cn3)nc2-c2ccc(Cl)cc2Cl)n1 [CHIR99021, 6-((2-((4-(2,4-Dichlorophenyl)-5-(4-methyl-1H-imidazol-2-yl)pyrimidin-2-yl)amino)ethyl)amino)nicotinonitrile] | differentiated after the removal of FGF2/activin, even in the presence of CHIR | rapidly differentiated | sufficient to support robust and long-term expansion of undifferentiated Axin2-EpiSCs | rapidly differentiated or died | elevated | strongly induced |  |  |
| Oc1nc(-c2ccc(C(F)(F)F)cc2)nc2c1CSCC2 [XAV939, 3,5,7,8-Tetrahydro-2-[4-(trifluoromethyl)phenyl]-4H-thiopyrano[4,3-d]pyrimidin-4-one] |  |  |  | differentiated after passaging | significantly increased |  | approximately 1 week | abolished this TOPFlash™ activity |
